Laboratory results reported in patent US10668049B2, “Methods of treating cognitive decline with transforming growth factor beta inhibitors” (The Regents of the University of California, priority 2008, dated 2020).

Experiments:
TGF-β signaling pathway = test: Microarray and real-time RT-PCR gene expression after in vivo albumin with or without TGF-βR blockers; parameters: species or system rat; conditions: albumin alone, 24 hours
Procedure: All experimental procedures were approved by the ethical committees dealing with experiments on animals at Charité University Medicine, Berlin and Ben-Gurion University of the Negev, Beer-Sheva. The in vivo experiments were performed as previously described (ivens et al., 2007; Seiffert et al., 2004). Adult male Wistar rats were treated with artificial cerebrospinal fluid (aCSF, composition in mM: 129 NaCl, 21 NaHCO3, 1.25 NaH2PO4, 1.8 MgSO4, 1.6 CaCl2, 3 KCl, 10 glucose) supplemented with deoxycholic acid (DOC, 2 mM, Sigma-Aldrich, Steinheim, Germany), bovine serum albumin (BSA, 0.1 mM. Merck, Darmstadt, Germany) corresponding to 25% of serum albumin concentration, or with TGF-β1 (10 ng/ml, Peprotech, Rocky Hill, N.J.). Sham-operated animals (perfused with aCSF) served as controls. […]
Total RNA was isolated using the TRIzol reagent (Invitrogen. Carlsbad, Calif.) and prepared using the Affymetrix GeneChip one-cycle target labeling kit (Affymetrix, Santa Clara, Calif.). […] Pairwise Pearson correlation coefficients for the three treatments were determined with Excel (Microsoft Corp., Richmond, Wash.). […]
mRNA expression levels were determined by quantitative reverse transcriptase-PCR by real-time kinetic analysis with an iQ5 detection system (Bio-Rad, Hercules, Calif.). Real-time PCR data were analyzed using the PCR Miner program (Zhao and Fernald, 2005). […]

cortical slices = test: Extracellular potassium accumulation in cortical slices measured with ion-sensitive microelectrodes; assay type: cell-based, rat; conditions: slices 24 h following treatment with albumin; frequencies ≥10 Hz
Procedure: Electrophysiological recordings were obtained 6-10 h following perfusion with sACSF. Control slices were treated similarly, using sACSF without albumin. For extracellular recordings, glass microelectrodes (˜3 MΩ, 154 mM NaCl) were positioned in layer 4 of the neocortex. Slices were stimulated with brief (100 μs) pulses, by using bipolar stimulation electrodes placed at the border between white and gray matter in the same conical column. Trains of 50 stimuli were applied at 2, 5, 10, 20, 50 and 100 Hz, at 2.5× threshold stimulation intensity. […] Extracellular potassium concentrations ([K+]o) were measured with ion-sensitive microelectrodes (ISMEs; Lux and Neher, 1973: Jauch et al., 2002).
To study K^+ clearance from the extracellular space, K clearance was recorded from control and treated slices (24 h following treatment with albumin) by using ISMEs. Slower decay kinetics of [K^+]o in response to pressure application in BBB-treated animals has been reported (Ivens et al., 2007). Here, [K]o accumulation during neuronal activation at different frequencies of stimulation was tested. In slices from control animals, the increase in [K^+]o was limited to 25% of baseline levels (<3.75 mM) at all stimulation frequencies with the employed stimulation intensities and number of stimuli.

[1] = test system: albumin-induced epileptogenesis; test: EEG recording from awake rats during albumin-induced epileptogenesis; assay type: in vivo, rat
[2] = during albumin-induced epileptogenesis

## albumin: bovine serum albumin, used to induce epileptogenesis
TGF-β signaling pathway
  NF-kappaB cascade, Jak-Stat cascade, and MAPKKK cascade expression: upregulated
Cortical slices
  [K+]o accumulation during neuronal activation, level reached: 6.7 mM
[1]; [2]
  EEG complexity (fractal dimension): decrease
  EEG signal harmony: increase
[1]; one week following treatment
  number of seizure like events (SLEs): sharp increase
